Numbered stars: 1 amine (or outer) side, 2 acyl side, 3 side chain; on linkers, the order of the positions; unused ones are H or OH. Square brackets hold non-standard residues; d marks the D form. Side chains are listed from the residue outwards. Peptide text beside a SMILES is read from it. * marks the point of attachment. C18 diacid = O=C(O)CCCCCCCCCCCCCCCCC(=O)*; γGlu = O=C(O)[C@H](CCC(=O)[*:2])N[*:1]; Ac4c = NC1(C(=O)O)CCC1; AEEA = NCCOCCOCC(=O)O; Aib = CC(C)(N)C(=O)O
Tests used:
[1] = Chemical stability assessment by RP-UPLC; type: physicochemical; conditions: 333 μM, 8 mM phosphate buffer pH 7.3, 37° C. vs 5° C.
Outline: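 Purity loss = (purity after 14 days at 5° C. minus that at 37° C.) relative to the 5° C. value, purity being main-peak area % by RP-UPLC with UV at 215 nm. Samples were 333 μM in 8 mM phosphate, pH 7.3; gradient adjusted for outlying retention times.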

[2] = Thioflavin T (ThT) fibrillation assay for physical stability; type: physicochemical; conditions: 250 μM in 10 mM HEPES buffer, pH 7.5, 37° C., shaking 960 rpm
Outline: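 Peptide at 250 μM in 10 mM HEPES pH 7.5 with 1 μM ThT, at 37° C with 960 rpm orbital shaking. Fluorescence (ex 444/em 485 nm) read every 20 min after 10 min pre-incubation; sigmoidal fit gives lag time (t0−2τ) and kapp (1/τ). Recovery is RP-HPLC peptide in the centrifuged, 0.22 μm-filtered supernatant as % of initial.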

SMILES	Purity loss; 14 days at 37° C. [1]	THT assay Lag time (Ex. 76) [2]
CC(C)C[C@H](NC(=O)[C@H](CC(C)C)NC(=O)[C@H](Cc1c[nH]c2ccccc12)NC(=O)[C@H](CCC(N)=O)NC(=O)[C@@H](NC(=O)[C@H](Cc1ccccc1)NC(=O)[C@H](CCC(=O)O)NC(=O)[C@H](CCC(N)=O)NC(=O)[C@H](C)NC(=O)[C@H](C)NC(=O)[C@H](CCCCN)NC(=O)[C@H](CO)NC(=O)[C@H](CC(=O)O)NC(=O)[C@H](CC(C)C)NC(=O)[C@H](Cc1ccc(O)cc1)NC(=O)[C@H](CCCCN)NC(=O)[C@H](CO)NC(=O)[C@H](CC(C)C)NC(=O)[C@H](CC(=O)O)NC(=O)[C@H](CO)NC(=O)[C@@H](NC(=O)[C@H](Cc1ccccc1)NC(=O)[C@@H](NC(=O)CNC(=O)[C@H](CCC(N)=O)NC(=O)C(C)(C)NC(=O)[C@@H](N)Cc1c[nH]cn1)[C@@H](C)O)[C@@H](C)O)C(C)C)C(=O)N[C@@H](CC(N)=O)C(=O)N[C@@H](CCCCNC(=O)CC[C@H](NC(=O)CC[C@H](NC(=O)COCCOCCNC(=O)COCCOCCNC(=O)CC[C@H](NC(=O)CCCCCCCCCCCCCCCCC(=O)O)C(=O)O)C(=O)O)C(=O)O)C(N)=O [Example 8, N^ε29-[(4S)-4-carboxy-4-[[(4S)-4-carboxy-4-[[2-[2-[2-[[2-[2-[2-[[(4S)-4-carboxy-4-(17-carboxyheptadecanoylamino)butanoyl]amino]ethoxy]ethoxy]acetyl]amino]ethoxy]ethoxy]acetyl]amino]butanoyl]amino]butanoyl]-[Aib2,Leu10,Lys17,Ala18,Glu21,Leu27,Lys29]-Glucagon amide] (H-H[Aib]QGTFTSDLSKYLDSKAAQEFVQWLLNK([γGlu-γGlu-AEEA-AEEA-γGlu-C18 diacid])-NH2; N-terminus assumed)	9%	45 h
CC(C)C[C@H](NC(=O)[C@H](Cc1ccc(O)cc1)NC(=O)[C@H](CCCCN)NC(=O)[C@H](CO)NC(=O)[C@H](CC(C)C)NC(=O)[C@H](CC(=O)O)NC(=O)[C@H](CO)NC(=O)[C@@H](NC(=O)[C@H](Cc1ccccc1)NC(=O)[C@@H](NC(=O)CNC(=O)[C@H](CCC(N)=O)NC(=O)C(C)(C)NC(=O)[C@@H](N)Cc1c[nH]cn1)[C@@H](C)O)[C@@H](C)O)C(=O)N[C@@H](CCC(=O)O)C(=O)N[C@@H](CO)C(=O)N[C@@H](CCCNC(=N)N)C(=O)N[C@@H](CCCNC(=N)N)C(=O)N[C@@H](C)C(=O)N[C@@H](CCCNC(=N)N)C(=O)N[C@@H](CCC(=O)O)C(=O)N[C@@H](Cc1ccccc1)C(=O)N[C@H](C(=O)N[C@@H](CCC(N)=O)C(=O)N[C@@H](Cc1c[nH]c2ccccc12)C(=O)N[C@@H](CC(C)C)C(=O)N[C@@H](CC(C)C)C(=O)N[C@@H](CCCCNC(=O)CC[C@H](NC(=O)CC[C@H](NC(=O)[C@H](CO)NC(=O)[C@H](CCC(=O)O)NC(=O)[C@H](CO)NC(=O)CC[C@H](NC(=O)CC[C@H](NC(=O)CCCCCCCCCCCCCCCCC(=O)O)C(=O)O)C(=O)O)C(=O)O)C(=O)O)C(=O)N[C@H](C(N)=O)[C@@H](C)O)C(C)C [Example 67, N^ε28-[(4S)-4-carboxy-4-[[(4S)-4-carboxy-4-[[(2S)-2-[[(2S)-4-carboxy-2-[[(2S)-2-[[(4S)-4-carboxy-4-[[(4S)-4-carboxy-4-(17-carboxyheptadecanoylamino)butanoyl]amino]butanoyl]amino]-3-hydroxypropanoyl]amino]butanoyl]amino]-3-hydroxypropanoyl]amino]butanoyl]amino]butanoyl]-[Aib2,Leu10,Glu15,Arg20,Glu21,Leu27,Lys28]-Glucagon amide] (H-H[Aib]QGTFTSDLSKYLESRRAREFVQWLLK([γGlu-γGlu-Ser-Glu-Ser-γGlu-γGlu-C18 diacid])T-NH2; N-terminus assumed)	4%	45 h
CC(C)C[C@H](NC(=O)[C@H](Cc1ccc(O)cc1)NC(=O)[C@H](CCCCN)NC(=O)[C@H](CO)NC(=O)[C@H](CC(C)C)NC(=O)[C@H](CC(=O)O)NC(=O)[C@H](CO)NC(=O)[C@@H](NC(=O)[C@H](Cc1ccccc1)NC(=O)[C@@H](NC(=O)CNC(=O)[C@H](Cc1c[nH]cn1)NC(=O)C(C)(C)NC(=O)[C@@H](N)Cc1c[nH]cn1)[C@@H](C)O)[C@@H](C)O)C(=O)N[C@@H](CCC(=O)O)C(=O)N[C@@H](CO)C(=O)N[C@@H](CCCCN)C(=O)N[C@@H](CCCNC(=N)N)C(=O)N[C@@H](C)C(=O)N[C@@H](CCCNC(=N)N)C(=O)N[C@@H](CCC(=O)O)C(=O)N[C@@H](Cc1ccccc1)C(=O)N[C@H](C(=O)N[C@@H](CCC(N)=O)C(=O)N[C@@H](Cc1c[nH]c2ccccc12)C(=O)N[C@@H](CC(C)C)C(=O)N[C@@H](CC(C)C)C(=O)N[C@@H](CCCCNC(=O)CC[C@H](NC(=O)CC[C@H](NC(=O)CC[C@H](NC(=O)CCCCCCCCCCCCCCCCC(=O)O)C(=O)O)C(=O)O)C(=O)O)C(=O)N[C@H](C(N)=O)[C@@H](C)O)C(C)C [Example 34, N^ε28-[(4S)-4-carboxy-4-[[(4S)-4-carboxy-4-[[(4S)-4-carboxy-4-(17-carboxyheptadecanoylamino)butanoyl]amino]butanoyl]amino]butanoyl]-[Aib2,His3,Leu10,Glu15,Lys17,Arg20,Glu21,Leu27,Lys28]-Glucagon amide] (H-H[Aib]HGTFTSDLSKYLESKRAREFVQWLLK([γGlu-γGlu-γGlu-C18 diacid])T-NH2; N-terminus assumed)	5%	45 h

Results, then the compound that gave them:

Purity loss; 14 days at 37° C. [1]	THT assay Lag time (Ex. 76) [2]	SMILES
3%	45 h	CC(C)C[C@H](NC(=O)[C@H](Cc1ccc(O)cc1)NC(=O)[C@H](CCCCN)NC(=O)[C@H](CO)NC(=O)[C@H](CC(C)C)NC(=O)[C@H](CC(=O)O)NC(=O)[C@H](CO)NC(=O)[C@@H](NC(=O)[C@H](Cc1ccccc1)NC(=O)[C@@H](NC(=O)CNC(=O)[C@H](CCC(N)=O)NC(=O)C(C)(C)NC(=O)[C@@H](N)Cc1c[nH]cn1)[C@@H](C)O)[C@@H](C)O)C(=O)N[C@@H](CCC(=O)O)C(=O)N[C@@H](CO)C(=O)N[C@@H](CCCNC(=N)N)C(=O)N[C@@H](CCCNC(=N)N)C(=O)N[C@@H](C)C(=O)N[C@@H](CCCNC(=N)N)C(=O)N[C@@H](CCC(=O)O)C(=O)N[C@@H](Cc1ccccc1)C(=O)N[C@H](C(=O)N[C@@H](CCC(N)=O)C(=O)N[C@@H](Cc1c[nH]c2ccccc12)C(=O)N[C@@H](CC(C)C)C(=O)N[C@@H](CC(C)C)C(=O)N[C@@H](CCCCNC(=O)COCCOCCNC(=O)COCCOCCNC(=O)CC[C@H](NC(=O)CC[C@H](NC(=O)CC[C@H](NC(=O)CCCCCCCCCCCCCCCCC(=O)O)C(=O)O)C(=O)O)C(=O)O)C(=O)N[C@H](C(N)=O)[C@@H](C)O)C(C)C [Example 42, N^ε28-[2-[2-[2-[[2-[2-[2-[[(4S)-4-carboxy-4-[[(4S)-4-carboxy-4-[[(4S)-4-carboxy-4-(17-carboxyheptadecanoylamino)butanoyl]amino]butanoyl]amino]butanoyl]amino]ethoxy]ethoxy]acetyl]amino]ethoxy]ethoxy]acetyl]-[Aib2,Leu10,Glu15,Arg20,Glu21,Leu27,Lys28]-Glucagon amide] (H-H[Aib]QGTFTSDLSKYLESRRAREFVQWLLK([AEEA-AEEA-γGlu-γGlu-γGlu-C18 diacid])T-NH2; N-terminus assumed)
1%	45 h	CC(C)C[C@H](NC(=O)[C@H](Cc1ccc(O)cc1)NC(=O)[C@H](CCCCN)NC(=O)[C@H](CO)NC(=O)[C@H](CC(C)C)NC(=O)[C@H](CC(=O)O)NC(=O)[C@H](CO)NC(=O)[C@@H](NC(=O)[C@H](Cc1ccccc1)NC(=O)[C@@H](NC(=O)CNC(=O)[C@H](CCC(N)=O)NC(=O)C1(NC(=O)[C@@H](N)Cc2c[nH]cn2)CCC1)[C@@H](C)O)[C@@H](C)O)C(=O)N[C@@H](CCC(=O)O)C(=O)N[C@@H](CO)C(=O)N[C@@H](CCCNC(=N)N)C(=O)N[C@@H](CCCNC(=N)N)C(=O)N[C@@H](C)C(=O)N[C@@H](CCC(N)=O)C(=O)N[C@@H](CC(=O)O)C(=O)N[C@@H](Cc1ccccc1)C(=O)N[C@H](C(=O)N[C@@H](CCC(N)=O)C(=O)N[C@@H](Cc1c[nH]c2ccccc12)C(=O)N[C@@H](CC(C)C)C(=O)N[C@@H](CC(C)C)C(=O)N[C@@H](CCCCNC(=O)COCCOCCNC(=O)COCCOCCNC(=O)CC[C@H](NC(=O)CC[C@H](NC(=O)CC[C@H](NC(=O)CCCCCCCCCCCCCCCCC(=O)O)C(=O)O)C(=O)O)C(=O)O)C(=O)N[C@H](C(N)=O)[C@@H](C)O)C(C)C [Example 63, N^ε28-[2-[2-[2-[[2-[2-[2-[[(4S)-4-carboxy-4-[[(4S)-4-carboxy-4-[[(4S)-4-carboxy-4-(17-carboxyheptadecanoylamino)butanoyl]amino]butanoyl]amino]butanoyl]amino]ethoxy]ethoxy]acetyl]amino]ethoxy]ethoxy]acetyl]-[Acb2,Leu10,Glu15,Leu27,Lys28]-Glucagon amide] (H-H[Ac4c]QGTFTSDLSKYLESRRAQDFVQWLLK([AEEA-AEEA-γGlu-γGlu-γGlu-C18 diacid])T-NH2; N-terminus assumed)
